Experimental data taken from paper PMC3185947 (British Journal of Cancer, 2011).
Where two headings read alike, the source gives them in different places. Marks after values point to notes of the source that are not given here.

Details: in vivo; for OSI-420 AUC0–24 / OSI-420 Cmax / OSI-420 Tmax, median (range) / OSI-420 Tmax: human
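Further: pharmacokinetic parameters derived by non-compartmental analysis.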

- OSI-420 AUC0–24 (150 mg): 2.56 (0.599–10.5) ^a μg h ml^−1
- OSI-420 Cmax (150 mg): 0.165 (0.0452–0.568) μg ml^−1
- OSI-420 Tmax, median (range) (150 mg): 4.0 (1.05–23.9) h
- OSI-420 AUC0–24 (200 mg): 4.55 (0.996–19.2) μg h ml^−1
- OSI-420 Cmax (200 mg): 0.278 (0.0617–0.864) μg ml^−1
- OSI-420 Tmax, median (range) (200 mg): 2.0 (1.00–24.0) h
- OSI-420 AUC0–24 (225 mg): 4.10 (1.57–19.7) μg h ml^−1
- OSI-420 Cmax (225 mg): 0.260 (0.116–0.908) μg ml^−1
- OSI-420 Tmax, median (range) (225 mg): 2.0 (0.930–8.00) h
- OSI-420 AUC0–24 (250 mg): 3.32 (1.52–16.4) μg h ml^−1
- OSI-420 Cmax (250 mg): 0.219 (0.119–0.760) μg ml^−1
- OSI-420 Tmax, median (range) (250 mg): 4.0 (1.00–8.00) h
- OSI-420 AUC0–24 (275 mg): 3.62 (1.51–15.7) μg h ml^−1
- OSI-420 Cmax (275 mg): 0.223 (0.107–0.929) μg ml^−1
- OSI-420 Tmax, median (range) (275 mg): 2.0 (1.00–8.02) h
- OSI-420 AUC0–24 (300 mg): 4.23 (1.38–6.32) μg h ml^−1
- OSI-420 Cmax (300 mg): 0.273 (0.133–0.346) μg ml^−1
- OSI-420 Tmax, median (range) (300 mg): 2.0 (1.00–2.03) h
- OSI-420 AUC0–24 (325 mg): 4.18 (2.26, 6.09) μg h ml^−1
- OSI-420 Cmax (325 mg): 0.344 (0.222, 0.426) μg ml^−1
- OSI-420 Tmax, median (range) (325 mg): 1.5 (2.00, 1.00) h
- OSI-420 AUC0–24 (350 mg): 2.33 (2.94, 1.72) μg h ml^−1
- OSI-420 Cmax (350 mg): 0.169 (0.243, 0.0945) μg ml^−1
- OSI-420 Tmax, median (range) (350 mg): 2.0 (2.00, 2.03) h
- OSI-420 AUC0–24 (375 mg): 3.80 µg·h/mL
- OSI-420 Cmax (375 mg): 0.253 µg/mL
- OSI-420 Tmax (375 mg): 1.0 h
- OSI-420 AUC0–24 (400 mg): 6.84 µg·h/mL
- OSI-420 Cmax (400 mg): 0.454 µg/mL
- OSI-420 Tmax (400 mg): 2.0 h
- OSI-420 AUC0–24 (425 mg): 5.02 µg·h/mL
- OSI-420 Cmax (425 mg): 0.293 µg/mL
- OSI-420 Tmax (425 mg): 2.0 h
- OSI-420 AUC0–24 (450 mg): 8.78 µg·h/mL
- OSI-420 Cmax (450 mg): 0.489 µg/mL
- OSI-420 Tmax (450 mg): 4.0 h
- Interpatient and intrapatient variability of PK: High
SMILES: C#Cc1cccc(Nc2ncnc3cc(OCCOC)c(OCCO)cc23)c1 [OSI-420]
